In patent publication US9283202B2, “Stable peracid-containing compositions” (CHD Bioscience, Inc., priority 2012, dated 2016):

Assay: active ingredient concentration over time in 50% ethanol solution (pullulan precipitating agent)
Type: physicochemical
Conditions: 50% ethanol solution in buffer, 25 minutes, one data point every five minutes (FIG. 7)
Method: FIGS. 6-8 show examples of removing pullulan by precipitation using an alcohol or PEG. As an alternative, pullulan can be removed by precipitation using either an alcohol or polyethylene glycol (PEG). In this approach, the precipitating agent is added to the solution and causes pullulan to form a white solid. The active ingredient is not affected by this addition. The solid can be stopped from getting into the solution by either an appropriate container or a simple filter. […] In FIG. 7, a 50% ethanol solution was prepared in buffer. The active ingredient concentration was measured over time for 25 minutes (one data point every five minutes). […] Furthermore, measurements of the same concentration in straight buffer yield the same measured concentration of active ingredient.

In the case of CC(=O)C(=O)OO [active ingredient, peroxy pyruvic acid], the “measured concentration of active ingredient over time” value is reported as “no statistical difference”.
